Test results from PubChem BioAssay AID2060337 (Molecular Pharmacology Branch, DTP, NCI, 2025).
Where “and” joins values, the source holds several entries; their conditions need not be identical. Equal values may be shown once.

System: 832693-133-R-J1-PDC multi-cell spheroids, viability
Assay: Anticancer human tumor 832693-133-R-J1-PDC patient-derived head and neck squamous carcinoma cell line growth inhibition [IpAb]
Conditions: for viability, T/C: stronger effect = lower value
Procedure, shortened: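 Spheroids of 60% malignant cells, 25% HUVEC and 15% MSC were exposed to targeted agents combined with ipatasertib or abemaciclib. Doses started at or near clinical Cmax (10 microM when unknown) and fell in half-log steps.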

[1] = curve of first compound, second compound 0.1 µM
[2] = curve of first compound, second compound 0.316 µM
[3] = curve of first compound, second compound 1 µM
[4] = second compound 0.1 µM, first compound 0.0316 µM
[5] = second compound 0.1 µM, first compound 0.1 µM
[6] = second compound 0.1 µM, first compound 0.316 µM
[7] = second compound 0.1 µM, first compound 1 µM
[8] = second compound 0.1 µM, first compound 3.16 µM
[9] = second compound 0.1 µM, first compound 10 µM
[10] = second compound 0.316 µM, first compound 0.0316 µM
[11] = second compound 0.316 µM, first compound 0.1 µM
[12] = second compound 0.316 µM, first compound 0.316 µM
[13] = second compound 0.316 µM, first compound 1 µM
[14] = second compound 0.316 µM, first compound 3.16 µM
[15] = second compound 0.316 µM, first compound 10 µM
[16] = second compound 1 µM, first compound 0.0316 µM
[17] = second compound 1 µM, first compound 0.1 µM
[18] = second compound 1 µM, first compound 0.316 µM
[19] = second compound 1 µM, first compound 1 µM
[20] = second compound 1 µM, first compound 3.16 µM
[21] = second compound 1 µM, first compound 10 µM
[22] = curve of first compound, second compound 3.16 µM
[23] = curve of first compound, second compound 10 µM
[24] = second compound 3.16 µM, first compound 0.0316 µM
[25] = second compound 3.16 µM, first compound 0.1 µM
[26] = second compound 10 µM, first compound 0.0316 µM
[27] = second compound 10 µM, first compound 0.1 µM
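Note: spheroids exposed to the drugs for one week before the viability readout.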
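Throughout, for viability, T/C: 100% = DMSO vehicle control wells.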

For CC1(C)CCC(CN2CCN(c3ccc(C(=O)NS(=O)(=O)c4ccc(NCC5CCOCC5)c([N+](=O)[O-])c4)c(Oc4cnc5[nH]ccc5c4)c3)CC2)=C(c2ccc(Cl)cc2)C1 + CCN1CCN(Cc2ccc(Nc3ncc(F)c(-c4cc(F)c5nc(C)n(C(C)C)c5c4)n3)nc2)CC1, the IC50 (curve of first compound, second compound 0.01 µM) was 5.41 µM, the IC50 (curve of first compound, second compound 0.0316 µM) was 6.55 µM and the IC50 [1] was 4.19 µM. For the same molecule, the IC50 [2] was 4.12 µM, the IC50 [3] was 4.6 µM and the viability, T/C (second compound 0.01 µM, first compound 0.0316 µM) was 93.7%. For the same molecule, the viability, T/C (second compound 0.01 µM, first compound 0.1 µM) was 104%, the viability, T/C (second compound 0.01 µM, first compound 0.316 µM) was 102% and the viability, T/C (second compound 0.01 µM, first compound 1 µM) was 96.1%. For the same molecule, the viability, T/C (second compound 0.01 µM, first compound 3.16 µM) was 75.2%, the viability, T/C (second compound 0.01 µM, first compound 10 µM) was 21.2% and the viability, T/C (second compound 0.0316 µM, first compound 0.0316 µM) was 89%. The viability, T/C (second compound 0.0316 µM, first compound 0.1 µM) was 93.9%, the viability, T/C (second compound 0.0316 µM, first compound 0.316 µM) was 85.8% and the viability, T/C (second compound 0.0316 µM, first compound 1 µM) was 86.5%. The viability, T/C (second compound 0.0316 µM, first compound 3.16 µM) was 83.6%, the viability, T/C (second compound 0.0316 µM, first compound 10 µM) was 30.4% and the viability, T/C [4] was 73.1%. It also gave a viability, T/C [5] of 69%, a viability, T/C [6] of 78.1% and a viability, T/C [7] of 71.2%. The viability, T/C [8] was 60.4%, the viability, T/C [9] was 17.7% and the viability, T/C [10] was 55.6%. It also gave a viability, T/C [11] of 61%, a viability, T/C [12] of 51.9% and a viability, T/C [13] of 67.3%. The viability, T/C [14] was 75.5%, the viability, T/C [15] was 9.24% and the viability, T/C [16] was 63.9%. It also gave a viability, T/C [17] of 72.1%, a viability, T/C [18] of 80.2% and a viability, T/C [19] of 68.5%. For the same molecule, the viability, T/C [20] was 72.9% and the viability, T/C [21] was 5.47%.
CC1(C)CCC(CN2CCN(c3ccc(C(=O)NS(=O)(=O)c4ccc(NCC5CCOCC5)c([N+](=O)[O-])c4)c(Oc4cnc5[nH]ccc5c4)c3)CC2)=C(c2ccc(Cl)cc2)C1 + CC(C)NCC(C(=O)N1CCN(c2ncnc3c2C(C)CC3O)CC1)c1ccc(Cl)cc1 showed an IC50 [1] of 9.68 µM, an IC50 [2] of 4.87 µM and an IC50 [3] of 3.92 µM. The IC50 [22] was 3.74 µM, the IC50 [23] was 3.64 µM and the viability, T/C [4] was 94.1%. The viability, T/C [5] was 90.3%, the viability, T/C [6] was 94.6% and the viability, T/C [7] was 88.5%. The viability, T/C [8] was 82.7%, the viability, T/C [9] was 48.8% and the viability, T/C [10] was 81.2%. The viability, T/C [11] was 80.3%, the viability, T/C [12] was 74.2% and the viability, T/C [13] was 64.7%. For the same molecule, the viability, T/C [14] was 68.7%, the viability, T/C [15] was 26.9% and the viability, T/C [16] was 60.9%. It also gave a viability, T/C [17] of 55.2%, a viability, T/C [18] of 55.2% and a viability, T/C [19] of 49.5%. It also gave a viability, T/C [20] of 72.4%, a viability, T/C [21] of 12.7% and a viability, T/C [24] of 51.2%. It also gave a viability, T/C [25] of 47.6%, a viability, T/C (second compound 3.16 µM, first compound 0.316 µM) of 55.5% and a viability, T/C (second compound 3.16 µM, first compound 1 µM) of 57.3%. The viability, T/C (second compound 3.16 µM, first compound 3.16 µM) was 73.2%, the viability, T/C (second compound 3.16 µM, first compound 10 µM) was 8.99% and the viability, T/C [26] was 58.6%. It also gave a viability, T/C [27] of 62.5%, a viability, T/C (second compound 10 µM, first compound 0.316 µM) of 52.2% and a viability, T/C (second compound 10 µM, first compound 1 µM) of 51.6%. For the same molecule, the viability, T/C (second compound 10 µM, first compound 3.16 µM) was 57.4% and the viability, T/C (second compound 10 µM, first compound 10 µM) was 3.92%.
For COc1c(OCCCN2CCOCC2)ccc2c3n(c(=NC(=O)c4cnc(N)nc4)nc12)CCN3, the viability, T/C (compound 0.00316 µM) was 93.8% and 99%, the viability, T/C (compound 0.01 µM) was 67.5% and 74.3% and the viability, T/C (compound 0.0316 µM) was 21.3% and 29.8%. For the same molecule, the viability, T/C (compound 0.1 µM) was 9.21% and 9.49%, the viability, T/C (compound 0.316 µM) was 4.67% and 4.86% and the viability, T/C (compound 1 µM) was 4.72% and 4.34%. For the same molecule, the IC50 (curve of compound) was 0.0155 µM and 0.0188 µM.
With CC(=O)c1c(C)c2cnc(Nc3ccc(N4CCNCC4)cn3)nc2n(C2CCCC2)c1=O + CC(C)NCC(C(=O)N1CCN(c2ncnc3c2C(C)CC3O)CC1)c1ccc(Cl)cc1 the IC50 [1] was 0.069 µM, the IC50 [2] was 0.0117 µM and the IC50 [3] was 0.00265 µM. For the same molecule, the IC50 [22] was 0.00168 µM, the IC50 [23] was 0.00282 µM and the viability, T/C (second compound 0.1 µM, first compound 0.000949 µM) was 90.5%. For the same molecule, the viability, T/C (second compound 0.1 µM, first compound 0.003 µM) was 75%, the viability, T/C (second compound 0.1 µM, first compound 0.00949 µM) was 66.7% and the viability, T/C (second compound 0.1 µM, first compound 0.03 µM) was 53.4%. For the same molecule, the viability, T/C (second compound 0.1 µM, first compound 0.0949 µM) was 47.8%, the viability, T/C (second compound 0.1 µM, first compound 0.3 µM) was 44.7% and the viability, T/C (second compound 0.316 µM, first compound 0.000949 µM) was 64.8%. For the same molecule, the viability, T/C (second compound 0.316 µM, first compound 0.003 µM) was 62.6%, the viability, T/C (second compound 0.316 µM, first compound 0.00949 µM) was 51.2% and the viability, T/C (second compound 0.316 µM, first compound 0.03 µM) was 41.5%. The viability, T/C (second compound 0.316 µM, first compound 0.0949 µM) was 31.4%, the viability, T/C (second compound 0.316 µM, first compound 0.3 µM) was 34.1% and the viability, T/C (second compound 1 µM, first compound 0.000949 µM) was 56.9%. The viability, T/C (second compound 1 µM, first compound 0.003 µM) was 49.6%, the viability, T/C (second compound 1 µM, first compound 0.00949 µM) was 36.6% and the viability, T/C (second compound 1 µM, first compound 0.03 µM) was 33.3%. It also gave a viability, T/C (second compound 1 µM, first compound 0.0949 µM) of 27.8%, a viability, T/C (second compound 1 µM, first compound 0.3 µM) of 29.6% and a viability, T/C (second compound 3.16 µM, first compound 0.000949 µM) of 56.2%. For the same molecule, the viability, T/C (second compound 3.16 µM, first compound 0.003 µM) was 45.1%, the viability, T/C (second compound 3.16 µM, first compound 0.00949 µM) was 31.6% and the viability, T/C (second compound 3.16 µM, first compound 0.03 µM) was 34.4%. It also gave a viability, T/C (second compound 3.16 µM, first compound 0.0949 µM) of 23.5%, a viability, T/C (second compound 3.16 µM, first compound 0.3 µM) of 20.8% and a viability, T/C (second compound 10 µM, first compound 0.000949 µM) of 61%. For the same molecule, the viability, T/C (second compound 10 µM, first compound 0.003 µM) was 50.5%, the viability, T/C (second compound 10 µM, first compound 0.00949 µM) was 37.8% and the viability, T/C (second compound 10 µM, first compound 0.03 µM) was 30.5%. The viability, T/C (second compound 10 µM, first compound 0.0949 µM) was 26.9% and the viability, T/C (second compound 10 µM, first compound 0.3 µM) was 21%.
CC(C)n1nc(-c2ccc3oc(N)nc3c2)c2c(N)ncnc21 + CC(C)NCC(C(=O)N1CCN(c2ncnc3c2C(C)CC3O)CC1)c1ccc(Cl)cc1 gave an IC50 [1] of 0.0789 µM, an IC50 [2] greater than 0.1 µM and an IC50 [3] greater than 0.1 µM. The IC50 [22] was greater than 0.1 µM, the IC50 [23] was greater than 0.1 µM and the viability, T/C (second compound 0.1 µM, first compound 0.000316 µM) was 88.9%. It also gave a viability, T/C (second compound 0.1 µM, first compound 0.001 µM) of 90.7%, a viability, T/C (second compound 0.1 µM, first compound 0.00316 µM) of 82.2% and a viability, T/C (second compound 0.1 µM, first compound 0.01 µM) of 69.3%. It also gave a viability, T/C [4] of 61%, a viability, T/C [5] of 47.7% and a viability, T/C (second compound 0.316 µM, first compound 0.000316 µM) of 67.5%. For the same molecule, the viability, T/C (second compound 0.316 µM, first compound 0.001 µM) was 73.5%, the viability, T/C (second compound 0.316 µM, first compound 0.00316 µM) was 75.5% and the viability, T/C (second compound 0.316 µM, first compound 0.01 µM) was 88.4%. The viability, T/C [10] was 81%, the viability, T/C [11] was 52.2% and the viability, T/C (second compound 1 µM, first compound 0.000316 µM) was 59.4%. The viability, T/C (second compound 1 µM, first compound 0.001 µM) was 74.5%, the viability, T/C (second compound 1 µM, first compound 0.00316 µM) was 106% and the viability, T/C (second compound 1 µM, first compound 0.01 µM) was 97.2%. The viability, T/C [16] was 71.2%, the viability, T/C [17] was 56.7% and the viability, T/C (second compound 3.16 µM, first compound 0.000316 µM) was 68.9%. For the same molecule, the viability, T/C (second compound 3.16 µM, first compound 0.001 µM) was 98.9%, the viability, T/C (second compound 3.16 µM, first compound 0.00316 µM) was 106% and the viability, T/C (second compound 3.16 µM, first compound 0.01 µM) was 69.2%. For the same molecule, the viability, T/C [24] was 66.1%, the viability, T/C [25] was 63.9% and the viability, T/C (second compound 10 µM, first compound 0.000316 µM) was 77%. It also gave a viability, T/C (second compound 10 µM, first compound 0.001 µM) of 96.2%, a viability, T/C (second compound 10 µM, first compound 0.00316 µM) of 69.7% and a viability, T/C (second compound 10 µM, first compound 0.01 µM) of 45.4%. The viability, T/C [26] was 53% and the viability, T/C [27] was 51.5%.
